Laboratory results published in patent US8765060B2, “Chemical sensor” (Regents of the University of Minnesota, priority 2005, dated 2014).
Where two headings read alike, the source gives them in different places.

Key:
[1] = Solubility in perfluoroperhydrophenanthrene (PFPHP)
[2] = cited from earlier work
[3] = Solubility in perfluoro(tributylamine)
Experimental: To explore the possibility that salts of ionic sites might be more soluble in fluorous phases if their hydrophilic ion were complexed to a receptor, the solubilities of several ion receptors in PFPHP and perfluoro(tributylamine) were tested.

[4] = cited from earlier work; remark: listed apart in the source
[5] = Extraction of lipophilic acids into fluorous membranes, 1H NMR; type: physicochemical; details: aqueous buffered solutions of 10^−3.5 M acid; 1H NMR of membrane
[6] = assuming 1:1 stoichiometry; cited from earlier work
[7] = assuming 1:1 stoichiometry; cited from earlier work; remark: listed apart in the source
[8] = cited from earlier work; remark: listed apart in the source
[9] = PFPHP saturated with substance, salts judged by resistance of soaked porous PTFE membranes

CC(C)[C@@H]1NC(=O)[C@H](C)OC(=O)[C@@H](C(C)C)NC(=O)[C@@H](C(C)C)OC(=O)[C@H](C(C)C)NC(=O)[C@H](C)OC(=O)[C@@H](C(C)C)NC(=O)[C@@H](C(C)C)OC(=O)[C@H](C(C)C)NC(=O)[C@H](C)OC(=O)[C@@H](C(C)C)NC(=O)[C@@H](C(C)C)OC1=O [valinomycin]
solubility in PFPHP [1, 9]: poorly soluble | log K^potK,Na ([2]; after exposure to an extract of urine): −3.1 | log K^potK,Na ([2]; before exposure to an extract of urine): −3.9 | solubility in perfluoro(tributylamine) [3]: poorly soluble

CCCCCCCCCCCC[N+](C)(CCCCCCCCCCCC)CCCCCCCCCCCC.[Cl-] [tridodecylmethylammonium chloride]
solubility in PFPHP [1]: not soluble enough

CCCCCCCC[N+](CCCCCCCC)(CCCCCCCC)CCCCCCCC.[Cl-] [tetraoctylammonium chloride]
log Kip ([4]; in 98.2 toluene-nitrobenzene): 14.9

OC(c1cccc(C(O)(C(F)(F)F)C(F)(F)F)c1)(C(F)(F)F)C(F)(F)F
solubility in PFPHP [1, 9]: poorly soluble | solubility in perfluoro(tributylamine) [3]: poorly soluble

CCCCCCCCCCCCCCCCCC(=O)N=c1cc2oc3cc(N(CC)CC)ccc3nc-2c2ccccc12 [Chromoionophroes I]
solubility in PFPHP [1]: poorly soluble

CCCCCCCCCCCCCCCCCCOC(=O)c1ccncc1 [Hydrogen Ionophre IV]
solubility in PFPHP [1]: poorly soluble

CCCCCCCC(=O)O [octanoic acid]
extraction into fluorous membranes [5]: not extracted to any significant amount

CCCC[N+](CCCC)(CCCC)CCCC.F[B-](F)(F)F [tetrabutyl-ammonium tetrafluoroborate]
log Kip ([4]; in α,α,α-trifluorotoluene): 5.4

FC(OC(F)(F)C(F)(OC(F)(F)C(F)(OC(F)(F)C(F)(OC(F)(F)C(F)(F)C(F)(F)F)C(F)(F)F)C(F)(F)F)C(F)(F)F)C(F)(F)F (centres unmarked) [2H-perfluoro-5,8,11-trimethyl-3,6,9,12-tetraoxapentadecane]
formal association constant with Na^+ [6]: 2.3 M⁻¹ | formal association constant with Li^+ [7]: 1.5 M⁻¹

C[C@H](CCC(=O)O)[C@H]1CC[C@H]2[C@@H]3[C@H](O)C[C@@H]4C[C@H](O)CC[C@]4(C)[C@H]3C[C@H](O)[C@]12C [cholic acid]
extraction into fluorous membranes [5]: not extracted to any significant amount

tetrakis-(decyl)ammonium tetraphenylborate
log Kip ([4]; in cyclohexane): 14.2

S=C(NCc1cccc(CNC(=S)Nc2ccccc2)c1)Nc1ccccc1
solubility in PFPHP [1]: poorly soluble

FC(F)(F)c1cc([B-](c2cc(C(F)(F)F)cc(C(F)(F)F)c2)(c2cc(C(F)(F)F)cc(C(F)(F)F)c2)c2cc(C(F)(F)F)cc(C(F)(F)F)c2)cc(C(F)(F)F)c1.[Na+]
solubility in PFPHP [1]: not soluble enough

FC(F)(F)C(F)(F)C(F)(F)C(F)(F)C(F)(F)N(C(F)(F)C(F)(F)C(F)(F)C(F)(F)C(F)(F)F)C(F)(F)C(F)(F)C(F)(F)C(F)(F)C(F)(F)F [perfluorotripentylamine]
formal pKa [8]: smaller than −0.5 | association with any ion tested ([8]; inorganic monocations): does not undergo measurable association

CCCCCCCCC(CCCCCCCC)CN=c1cc2oc3cc(N(CC)CC)ccc3nc-2c2ccccc12 [Chromoionophroes III]
solubility in PFPHP [1]: poorly soluble

c1ccc(CSCc2ccccc2)cc1 [dibenzyl sulfide]
solubility in PFPHP [1]: poorly soluble

FC(F)(F)C(F)(F)C(F)(F)C(F)(F)C(F)(F)C(F)(F)c1cc([B-](c2cc(C(F)(F)C(F)(F)C(F)(F)C(F)(F)C(F)(F)C(F)(F)F)cc(C(F)(F)C(F)(F)C(F)(F)C(F)(F)C(F)(F)C(F)(F)F)c2)(c2cc(C(F)(F)C(F)(F)C(F)(F)C(F)(F)C(F)(F)C(F)(F)F)cc(C(F)(F)C(F)(F)C(F)(F)C(F)(F)C(F)(F)C(F)(F)F)c2)c2cc(C(F)(F)C(F)(F)C(F)(F)C(F)(F)C(F)(F)C(F)(F)F)cc(C(F)(F)C(F)(F)C(F)(F)C(F)(F)C(F)(F)C(F)(F)F)c2)cc(C(F)(F)C(F)(F)C(F)(F)C(F)(F)C(F)(F)C(F)(F)F)c1.[Na+] [compound 2]
solubility ([1]; organic solvent or mixture): 1400 µM

CCCCCCCCCCCCN(CCCCCCCCCCCC)CCCCCCCCCCCC [tridodecylamine]
solubility in PFPHP [1]: poorly soluble

CCCCC(CCCC)OC(=O)CCCCCCCCCCOC(=O)Cc1ccc(N=c2cc3oc4cc(N(C)C)ccc4nc-3c3ccccc23)cc1 [Chromoionophroes II]
solubility in PFPHP [1]: poorly soluble

CCCCCCCCCCCC[N+](CCCCCCCCCCCC)(CCCCCCCCCCCC)CCCCCCCCCCCC.Clc1ccc([B-](c2ccc(Cl)cc2)(c2ccc(Cl)cc2)c2ccc(Cl)cc2)cc1 [ETH 500, tetradecylammonim tetrakis[p-chlorophenyl]borate]
solubility in PFPHP [1, 9]: not sufficiently soluble
